This passage reports IC50 results from ChEMBL document CHEMBL5728275 (2021).

This assay deals with Dihydroorotate dehydrogenase (quinone), mitochondrial (Homo sapiens, UniProt Q02127). The experiment in a line: Method for Testing Activities of Compounds at Enzyme Level: Principles of activity test at enzyme level: firstly, dihydroorotate (DHO) is oxidatively dehydrogenated by DHODH to form orotic acid (Orotate, OA), accompanied by reduction of Flavin mononucleotide (FMN) into reduced flavin mononucleotide (FMNH2) by accepting 2H+ and 2e−, then coenzyme Q (CoQ) as hydrogen acceptor accepting electron and proton from FMNH2 is reduced into reduced coenzyme Q (CoQH2), reduced coenzyme Q transfers electrons to a chromogenic substrate, […] (DCIP), and finally DCIP was reduced. […] The degree to which the substrate DHO is oxidized can be judged based on the degree of decrease in absorbance. The degree of oxidation of the substrate DHO per unit time is the initial rate of the enzymatic reaction. […] Substrate DHO was added to start the reaction with a DHO final concentration of 500 μM. The absorbance was read at 600 nm using a BioTek microplate reader and read every 30 s for 6 min. […] For calculating IC50 of a compound, Origin 8.0 was used to test the inhibition rate at least 8 concentrations. It counts as single protein.
Dihydroorotate dehydrogenase (quinone), mitochondrial, sequence (Q02127 whole entry): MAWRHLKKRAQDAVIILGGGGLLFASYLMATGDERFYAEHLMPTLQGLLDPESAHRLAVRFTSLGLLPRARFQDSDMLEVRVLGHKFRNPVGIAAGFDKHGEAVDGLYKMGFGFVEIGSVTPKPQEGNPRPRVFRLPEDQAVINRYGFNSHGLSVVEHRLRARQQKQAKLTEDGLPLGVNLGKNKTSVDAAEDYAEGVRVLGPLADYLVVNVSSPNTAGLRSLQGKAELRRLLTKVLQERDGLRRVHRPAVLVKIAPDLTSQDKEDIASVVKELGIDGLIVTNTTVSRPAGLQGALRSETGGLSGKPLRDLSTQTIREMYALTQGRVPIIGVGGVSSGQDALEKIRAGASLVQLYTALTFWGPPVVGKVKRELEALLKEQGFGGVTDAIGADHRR
As to `CN(/N=C/c1ccccc1C(=O)OCCc1ccccc1)c1nc(-c2ccccc2Cl)cs1`, the IC50 is greater than 50 µM.

Turning to `O=C(OCCc1ccccc1)c1ccccc1/C=N/Nc1nc(-c2ccccc2Cl)cs1`, the IC50 was greater than 50 µM.

Turning to `Cc1sc(N(C)/N=C/c2ccccc2C(=O)O)nc1-c1ccccc1Cl`, the IC50 was 0.0355 µM.

As usually defined, the IC50 is the concentration needed to halve the response being measured.
